PubChem BioAssay (NCI)
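Protocol summary: plate cells (96-well), add compound at 5 concentrations, incubate 48 h, interpolate endpoints linearly. At the TGI there is no net growth.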

What was measured:
Assay in all cases: growth of human tumour cells (NCI), 48 h
786-0 renal = system: 786-0 renal
A498 renal = system: A498 renal
A549 NSCLC = system: A549 NSCLC
ACHN renal = system: ACHN renal
CCRF-CEM leukemia = system: CCRF-CEM leukemia
EKVX NSCLC = system: EKVX NSCLC
HCC-2998 colon = system: HCC-2998 colon
HCT-116 colon = system: HCT-116 colon
HCT-15 colon = system: HCT-15 colon
HL-60(TB) leukemia = system: HL-60(TB) leukemia
HOP-62 NSCLC = system: HOP-62 NSCLC
HS 578T breast = system: HS 578T breast
HT29 colon = system: HT29 colon
K-562 leukemia = system: K-562 leukemia
KM12 colon = system: KM12 colon
MALME-3M melanoma = system: MALME-3M melanoma
MCF7 breast = system: MCF7 breast
MOLT-4 leukemia = system: MOLT-4 leukemia
NCI-H226 lung = system: NCI-H226 lung
NCI-H23 lung = system: NCI-H23 lung
NCI-H460 lung = system: NCI-H460 lung
NCI-H522 lung = system: NCI-H522 lung
OVCAR-3 ovarian = system: OVCAR-3 ovarian
OVCAR-5 ovarian = system: OVCAR-5 ovarian
OVCAR-8 ovarian = system: OVCAR-8 ovarian
PC-3 prostate = system: PC-3 prostate
RPMI-8226 leukemia = system: RPMI-8226 leukemia
SF-268 CNS = system: SF-268 CNS
SF-295 CNS = system: SF-295 CNS
SF-539 CNS = system: SF-539 CNS
SK-MEL-2 melanoma = system: SK-MEL-2 melanoma
SK-MEL-28 melanoma = system: SK-MEL-28 melanoma
SK-MEL-5 melanoma = system: SK-MEL-5 melanoma
SN12C renal = system: SN12C renal
SNB-75 CNS = system: SNB-75 CNS
SR leukemia = system: SR leukemia
SW-620 colon = system: SW-620 colon
TK-10 renal = system: TK-10 renal
U251 CNS = system: U251 CNS
UACC-257 melanoma = system: UACC-257 melanoma

Measured: TGI

O=C(CCCn1cnc([N+](=O)[O-])n1)NCCCn1ccnc1[N+](=O)[O-]
> 100 µM: all assays above
